# Measured values from patent US9650395B2, “Antibacterial compounds and methods for use” (PTC Therapeutics, Inc., priority 2011, dated 2017).
# Like-named read-outs stand apart in the source and are kept apart here.
# Legend:
# [1] = system: super sensitive Gram-negative Escherichia coli (E. coli) BAS849; assay: Antibacterial activity, microbroth dilution MIC, E. coli BAS849; format: cell-based; conditions: Escherichia coli, read-out: MIC, BAS849
# [2] = system: control Gram-negative E. coli 25922 strain; assay: Antibacterial activity, microbroth dilution MIC, E. coli 25922; format: cell-based, Escherichia coli; conditions: Escherichia coli; E. coli 25922, microbroth dilution; read-out: MIC, 25922
# [3] = system: Gram-positive Staphylococcus aureus (S. aureus) 29213; assay: Antibacterial activity, microbroth dilution MIC, S. aureus 29213; format: cell-based; conditions: Staphylococcus aureus; S. aureus 29213, microbroth dilution; read-out: MIC, 29213
# [4] = system: quinolone resistant E. coli LZ3111; assay: Antibacterial activity, MIC, quinolone resistant E. coli LZ3111; format: cell-based, Escherichia coli; conditions: Escherichia coli, read-out: MIC, LZ3111
# From the text: (§1) The antibacterial activity from a microbroth dilution method may be presented as the minimum inhibitory concentration (MIC in […]). The MIC value is the lowest concentration of a drug which prevents macroscopically visible bacterial growth under test conditions.
# Mutations in these regions are known to confer a high level resistance to the quinolone class of antibiotics.
# [5] = system: E. coli ELZ4000 (MDR clinical isolate); assay: Antibacterial activity, MIC, MDR E. coli ELZ4000; format: cell-based, Escherichia coli; conditions: Escherichia coli; E. coli ELZ4000, MDR clinical isolate; read-out: MIC ELZ4000
# [6] = system: E. coli ELZ4251 (MDR clinical isolate); assay: Antibacterial activity, MIC, MDR E. coli ELZ4251; format: cell-based, Escherichia coli; conditions: Escherichia coli, E. coli ELZ4251, MDR clinical isolate; read-out: MIC ELZ4251
# [7] = system: Pseudomonas aeruginosa (P. aeruginosa) 27853; assay: Antibacterial activity, MIC, P. aeruginosa 27853; format: cell-based; conditions: Pseudomonas aeruginosa, P. aeruginosa 27853; read-out: MIC 27853
# From the text: as §1
# Antibacterial activity of test compounds against the Gram-negative bacterium Pseudomonas aeruginosa (P. aeruginosa) 27853 is shown in Table 5.
# [8] = system: Haemophilus influenzae (H. influenzae) 49247; assay: Antibacterial activity, MIC, H. influenzae 49247; format: cell-based; conditions: Haemophilus influenzae; H. influenzae 49247; read-out: MIC 49247
# From the text: as §1
# Antibacterial activity of test compounds against the Gram-negative bacteria Haemophilus influenzae (H. influenzae) 49247, Moraxella catarrhalis (M. catarrhalis) 25238 and Neisseria meningitidis (N. meningitidis) 13090 is shown in Table 6.
# [9] = system: Moraxella catarrhalis (M. catarrhalis) 25238; assay: Antibacterial activity, MIC, M. catarrhalis 25238; format: cell-based; conditions: Moraxella catarrhalis, M. catarrhalis 25238; read-out: MIC 25238
# [10] = system: Neisseria meningitidis (N. meningitidis) 13090; assay: Antibacterial activity, MIC, N. meningitidis 13090; format: cell-based; conditions: Neisseria meningitidis; N. meningitidis 13090; read-out: MIC 13090
# [11] = E. coli BAS849, microbroth dilution
compound,measurement,setting,value
"CCCc1cc(C(=O)O)c(=O)[nH]c1-c1ccc(N(C)C)cc1 [Cpd 8, 6-[4-(dimethylamino)phenyl]-2-oxo-5-propyl-1,2-dihydropyridine-3-carboxylic acid]",MIC,[1]; [11],< 1 µg/mL
same,MIC,[2],3.5 to 12.5 µg/mL
same,MIC,[3],12.5 to 150 µg/mL
same,MIC,[4],12.5 to 150 µg/mL
same,MIC,[5],12.5 to 150 µg/mL
same,MIC,[6],12.5 to 150 µg/mL
same,MIC,[7],12.5 to 150 µg/mL
same,MIC,[8],< 1 µg/mL
same,MIC,[9],< 1 µg/mL
same,MIC,[10],< 1 µg/mL
"CN(C)c1ccc(-c2[nH]c(=O)c(C(=O)O)cc2C2CC2)cc1 [Cpd 12, 5-cyclopropyl-6-[4-(dimethylamino)phenyl]-2-oxo-1,2-dihydropyridine-3-carboxylic acid]",MIC,[1]; [11],< 1 µg/mL
same,MIC,[2],3.5 to 12.5 µg/mL
same,MIC,[3],12.5 to 150 µg/mL
same,MIC,[4],12.5 to 150 µg/mL
same,MIC,[5],12.5 to 150 µg/mL
same,MIC,[6],12.5 to 150 µg/mL
same,MIC,[7],12.5 to 150 µg/mL
same,MIC,[8],< 1 µg/mL
same,MIC,[9],< 1 µg/mL
same,MIC,[10],< 1 µg/mL
"CCc1cc(C(=O)O)c(=O)[nH]c1-c1ccc(N(C)CCO)cc1 [Cpd 17, 5-ethyl-6-{4-[(2-hydroxyethyl)(methyl)amino]phenyl}-2-oxo-1,2-dihydropyridine-3-carboxylic acid]",MIC,[1]; [11],< 1 µg/mL
same,MIC,[2],3.5 to 12.5 µg/mL
same,MIC,[3],12.5 to 150 µg/mL
same,MIC,[4],12.5 to 150 µg/mL
same,MIC,[5],12.5 to 150 µg/mL
same,MIC,[6],12.5 to 150 µg/mL
same,MIC,[8],< 1 µg/mL
same,MIC,[9],< 1 µg/mL
same,MIC,[10],< 1 µg/mL
"CCc1c(-c2ccc(N3CCC3)cc2)[nH]c(=O)c(C(=O)O)c1O [Cpd 83, 6-[4-(azetidin-1-yl)phenyl]-5-ethyl-4-hydroxy-2-oxo-1,2-dihydropyridine-3-carboxylic acid]",MIC,[1]; [11],< 1 µg/mL
same,MIC,[2],3.5 to 12.5 µg/mL
same,MIC,[3],3.5 to 12.5 µg/mL
same,MIC,[4],12.5 to 150 µg/mL
same,MIC,[5],12.5 to 150 µg/mL
same,MIC,[6],12.5 to 150 µg/mL
same,MIC,[7],12.5 to 150 µg/mL
same,MIC,[8],< 1 µg/mL
same,MIC,[9],< 1 µg/mL
same,MIC,[10],< 1 µg/mL
"CC(C)c1c(-c2ccc(N(C)C)cc2)[nH]c(=O)c(C(=O)O)c1O [Cpd 96, 6-[4-(dimethylamino)phenyl]-4-hydroxy-2-oxo-5-(propan-2-yl)-1,2-dihydropyridine-3-carboxylic acid]",MIC,[1]; [11],< 1 µg/mL
same,MIC,[2],3.5 to 12.5 µg/mL
same,MIC,[3],3.5 to 12.5 µg/mL
same,MIC,[4],12.5 to 150 µg/mL
same,MIC,[5],12.5 to 150 µg/mL
same,MIC,[6],12.5 to 150 µg/mL
same,MIC,[7],12.5 to 150 µg/mL
same,MIC,[8],< 1 µg/mL
same,MIC,[9],< 1 µg/mL
same,MIC,[10],< 1 µg/mL
"CCc1c(-c2ccc(N3CCNCC3)cc2)[nH]c(=O)c(C(=O)O)c1O.O=C(O)C(F)(F)F [Cpd 105, 5-ethyl-4-hydroxy-2-oxo-6-[4-(piperazin-1-yl)phenyl]-1,2-dihydropyridine-3-carboxylic acid trifluoroacetate]",MIC,[1],1 to 3.5 µg/mL
same,MIC,[2],3.5 to 12.5 µg/mL
same,MIC,[3],12.5 to 150 µg/mL
same,MIC,[4],12.5 to 150 µg/mL
same,MIC,[5],12.5 to 150 µg/mL
same,MIC,[6],12.5 to 150 µg/mL
same,MIC,[8],3.5 to 12.5 µg/mL
same,MIC,[9],3.5 to 12.5 µg/mL
same,MIC,[10],1 to 3.5 µg/mL
"CCc1c(-c2ccc(-n3ccnc3)cc2)[nH]c(=O)c(C(=O)O)c1O [Cpd 107, 5-ethyl-4-hydroxy-6-[4-(1H-imidazol-1-yl)phenyl]-2-oxo-1,2-dihydropyridine-3-carboxylic acid]",MIC,[1]; [11],1 to 3.5 µg/mL
same,MIC,[2],12.5 to 150 µg/mL
same,MIC,[3],12.5 to 150 µg/mL
same,MIC,[4],12.5 to 150 µg/mL
same,MIC,[5],12.5 to 150 µg/mL
same,MIC,[6],12.5 to 150 µg/mL
same,MIC,[7],12.5 to 150 µg/mL
same,MIC,[8],< 1 µg/mL
same,MIC,[9],< 1 µg/mL
same,MIC,[10],< 1 µg/mL
"CCc1cc(C(=O)O)c(=O)[nH]c1-c1ccc(N2CCCCC2)cc1 [Cpd 108, 5-ethyl-2-oxo-6-[4-(piperidin-1-yl)phenyl]-1,2-dihydropyridine-3-carboxylic acid]",MIC,[1]; [11],< 1 µg/mL
same,MIC,[2],12.5 to 150 µg/mL
same,MIC,[3],12.5 to 150 µg/mL
same,MIC,[4],12.5 to 150 µg/mL
same,MIC,[5],12.5 to 150 µg/mL
same,MIC,[6],12.5 to 150 µg/mL
same,MIC,[7],12.5 to 150 µg/mL
same,MIC,[8],< 1 µg/mL
same,MIC,[9],< 1 µg/mL
same,MIC,[10],< 1 µg/mL
"CCc1cc(C(=O)O)c(=O)[nH]c1-c1ccc(N2CCOCC2)cc1 [Cpd 110, 5-ethyl-6-[4-(morpholin-4-yl)phenyl]-2-oxo-1,2-dihydropyridine-3-carboxylic acid]",MIC,[1]; [11],< 1 µg/mL
same,MIC,[2],3.5 to 12.5 µg/mL
same,MIC,[3],12.5 to 150 µg/mL
same,MIC,[4],12.5 to 150 µg/mL
same,MIC,[5],12.5 to 150 µg/mL
same,MIC,[6],12.5 to 150 µg/mL
same,MIC,[7],12.5 to 150 µg/mL
same,MIC,[8],< 1 µg/mL
same,MIC,[9],< 1 µg/mL
same,MIC,[10],< 1 µg/mL
